# Experimental data: patent US20100138935A1, “Detection of cellular stress” (priority 2004, published 2010)
# Assays:
# [1] = test system: HO-1-LacZ (HOZ) transgene; assay: LacZ transgene expression in HO-1-LacZ (HOZ) reporter mice; format: in vivo, mouse
# Protocol: Each test compound was dissolved in the appropriate vehicle solution and administered by intraperitoneal injection (i.p.) at a dose volume of 10 ml/kg. Wherever possible, both naive (untreated) and vehicle-treated controls were used. If a test item whose toxicity in the mouse is poorly characterised was to be used, a dose-ranging experiment was conducted prior to the main experiment. The test item was administered to a single mouse which was monitored for any adverse effects 6-8 hours and 24 hours later. If the single dose ranging mouse tolerated the treatment, the remaining mice were administered the test item according to the protocol.
# Two slices of tissue (˜2 mm thickness) were removed for histochemical analysis of LacZ expression according to methods described below.
# Tissues were washed with PBS and prefixed in 0.2% glutaraldehyde in PBS containing 0.1M MgCl2 and 5 mM EDTA, pH 7.3, for 4 hours at 4° C. on a shaker. After fixation, the tissues were transferred to 20% Sucrose solution and dehydrated overnight at 4° C. The next day they were embedded in cryo-M-bed medium on cork discs and lowered slowly into liquid nitrogen then transferred to −80° C. until sections were required.
# Cryostat sample and chamber temperatures were set to −30° C. The sample to be sectioned was placed in the cryostat one hour prior to sectioning to allow equilibration at the appropriate temperature. Frozen sections (10 μm) were cut and placed on aminopropyltriethoxysilane (APES) coated slides.
# Prior to staining, sections were incubated in 0.2% glutaraldehyde (as above) for 10 minutes at room temperature then washed twice (5 min each) in PBS containing 2 mM MgCl2, 0.01% sodium deoxycholate and 0.02% % Nonidet-P40. Sections were then […] the same wash solution containing 1 mg/ml X-gal, 5 mM potassium ferrocyanide and 5 mM potassium ferricyanide overnight at 37° C. then washed twice in PBS for 5 min, allowed to air dry and mounted in aqueous mounting medium (Hydromount). Slides were evaluated and photographed. • Frozen Method 2
# Tissues were excised, immediately placed into chilled 4% paraformaldehyde containing 0.1% glutaraldehyde and 2 mM MgCl2 in PBS, and fixed in the above solution for 3 hours at 2-8° C. with gentle shaking. Fixed tissues were washed at 2-8° C. for 3×5 minutes with chilled PBS containing 2 mM MgCl2 and dehydrated overnight at 2-8° C. in PBS containing 2 mM MgCl2 and 30% (w/v) sucrose overnight The next day dehydrated tissues were embedded in OCT embedding medium using an isopentane/dry ice bath. Embedded tissues were stored at −70° C. until they could be cryosectioned.
# Frozen sections were washed three times for 5 minutes in PBS containing 2 mM MgCl2 at 2-8° C. then 3×30 min in detergent wash (PBS containing 2 mM MgCl2 0.01% Nonidet P40 and 0.1% Sodium Deoxycholate) at 2-8° C. They were then stained overnight in PBS containing 2 mM MgCl2, 0.02% Nonidet P40, 0.1% Sodium Deoxycholate, 5 mM Potassium ferrocyanide, 5 mM Potassium ferricyanide, and 0.1% X-gal at 37° C. The next day, the slides were washed three times for 5 minutes in PBS containing 2 mM MgCl2 followed by three times for 5 minutes in PBS at room temperature. They were equilibrated with 100% ethanol (5 min) and counterstained with Eosin for 1 min at room temperature. Following dehydration and mounting they were evaluated and photographed. • Whole Mount Method
# Tissue specimens that had been prefixed in fresh 4% paraformaldehyde were stained immediately using the procedure for “Whole Mount X-Gal Histochemistry of Transgenic Animal Tissues” (see http://www.rodentia.com/wmc/docs/lacZ bible.html), summarised below) was followed, and the post-fixed tissues were transferred to 70% (v/v) ethanol.
# Following fixation for one hour in 4% paraformaldehyde, tissues were rinsed three times, for thirty minutes each, with rinse buffer (100 mM sodium phosphate (pH 7.3), 2 mM MgCl2, 0.01% sodium deoxycholate, 0.02% NP-40) at room temperature. […]
# [2] = test system: HOZ mice; assay: Histopathology (H&E) of HOZ mouse liver and kidney; format: in vivo; conditions: 10 mg/kg i.p. in saline, 24 hours
# Protocol: Two further slices (˜2 mm thickness) were placed in 10% neutral buffered formalin (10% NBF) overnight then processed, sectioned and stained with haematoxylin and eosin (H&E).
# Initially, one HOZ mouse was given 10 mg/kg body weight cadmium chloride i.p. One control animal received the vehicle solution, isotonic saline, i.p. and an untreated animal was used as a second control. The animals were killed 24 hours after dosing and liver, kidney and brain were collected for H&E staining and lacZ histology.
# Sections of HOZ mouse liver and kidney were prepared and stained according to standard procedures (H&E). (a, b) Naive control; (c, d) Saline treated; (e, f) Cadmium chloride treated (10 mg/kg i.p. in saline). All images in FIG. 5 are of H&E stained sections: (a, c and e) are of liver; b, d and f are of kidney (original magnification ×100).
# [3] = test system: HOZ mice; assay: BUN as a marker of nephrotoxicity in HOZ mice; format: in vivo, mouse; set-up: BUN: unit not given here
# Protocol: Terminal blood samples were taken by cardiac puncture into lithium/heparin-coated tubes for preparation of plasma. Tissues, as defined in each protocol, were routinely dissected as follows:
# Following removal into tubes suitable for plasma preparation, venous blood samples were mixed on a roller for 10 minutes then cooled on ice. Red blood cells were removed by centrifugation at 2,000 rpm for 10 minutes at 8-10° C. The supernatant (plasma) was transferred to a second tube and stored at −70° C. until required for analysis.
# Plasma samples were analysed for appropriate analytes on a Roche autoanalyser (Cobas Integra 400) according to the manufacturer's instructions. The routine markers measured included: (for liver damage) plasma alanine aminotransferase (ALT), aspartate aminotransferase (AST) and alkaline phosphatase (ALP) and (for kidney damage) plasma creatinine and blood urea nitrogen (BUN).
# The increase in BUN was 6-fold at 8 hours and 44-fold after 24 hours.
structure (smiles),measurement,setting,value
"[Cl][Cd][Cl] [Cadmium Chloride, cadmium chloride]",expression of the HOZ gene in kidney,"[1]; 8 mg/kg, 8 hours after dosing",detectable expression
same,LacZ expression in brain,"[1]; HOZ mice, with or without cadmium chloride treatment",no evidence of LacZ expression
same,LacZ staining in liver,"[1]; HOZ mouse, 10 mg/kg i.p. in saline, 24 hours after dosing",intense blue staining
same,LacZ staining in kidney (proximal convoluted tubules),"[1]; HOZ mouse, 10 mg/kg i.p. in saline, 24 hours, versus naive and saline controls",frequency of stained PCTs was much higher
same,HOZ gene expression in liver,"[1]; either sex, 8 mg/kg i.p., 24 hours",clearly apparent
same,LacZ staining in liver,"[1]; female, 4 mg/kg i.p., 8 hours",weak LacZ staining
same,HOZ gene expression in liver,"[1]; female, 2-8 mg/kg i.p., 8 hours",no consistent evidence of HOZ expression
same,HOZ gene expression in liver,"[1]; female, lower doses (2, 4 mg/kg) i.p., 24 hours",none was evident
same,HOZ gene expression in liver,"[1]; male, 8 mg/kg i.p., 8 hours",High levels of HOZ gene expression
same,HOZ gene expression in liver,"[1]; male, lower doses (2, 4 mg/kg) i.p., 8 hours",lower levels of expression
same,HOZ gene expression in liver,"[1]; male, lower doses (2, 4 mg/kg) i.p., 24 hours",some HOZ expression was also apparent
same,kidney histology (H&E),[2],occasional necrotic proximal convoluted tubules (PCTs)
same,liver histology (H&E),[2],acute toxicity manifesting as hepatocyte vacuolation and areas of necrosis associated with deposits of erythrocytes
same,BUN,"[3]; female, 1 mg/kg, 8 hours",5.10
same,BUN,"[3]; female, 1 mg/kg, 24 hours",4.36
same,BUN,"[3]; female, 2 mg/kg, 8 hours",3.33
same,BUN,"[3]; female, 2 mg/kg, 24 hours",2.85
same,BUN,"[3]; female, 4 mg/kg, 8 hours",4.77
same,BUN,"[3]; female, 4 mg/kg, 24 hours",3.66
same,nephrotoxicity as measured by BUN,"[3]; female, 8 mg/kg",mild nephrotoxicity
same,BUN,"[3]; female, 8 mg/kg, 8 hours",22.86
same,BUN,"[3]; female, 8 mg/kg, 24 hours",98.16
same,increase in BUN,"[3]; female, 8 mg/kg, after 24 hours",44 fold
same,increase in BUN,"[3]; female, 8 mg/kg, at 8 hours",6 fold
same,nephrotoxicity as measured by BUN,[3]; male mice,No nephrotoxicity
same,BUN,"[3]; male, 1 mg/kg, 8 hours",4.54
same,BUN,"[3]; male, 1 mg/kg, 24 hours",5.27
same,BUN,"[3]; male, 2 mg/kg, 8 hours",4.24
same,BUN,"[3]; male, 2 mg/kg, 24 hours",5.10
same,BUN,"[3]; male, 4 mg/kg, 8 hours",3.87
same,BUN,"[3]; male, 4 mg/kg, 24 hours",4.11
same,BUN,"[3]; male, 8 mg/kg, 8 hours",3.84
same,BUN,"[3]; male, 8 mg/kg, 24 hours",4.85
